# “Also recorded” adds a separate entry of the source.
# Experiments:
# Pasteurella multocida [1] = test: Treatment of Pasteurella multocida infection by melatonin in mice; type: in vivo, C57BL/6 mice; conditions: intraperitoneal at 30 minutes, 6, 12 and 18 hours after infection
# Procedure: Mice were randomly divided into four groups (10 mice in each group) as described in #1, described above. In the experimental group, after infection with 2.2×10^5 CFU of Pasteurella multocida through intraperitoneal injection, MT was injected intraperitoneally for four times, with the first injection 30 minutes after Pasteurella multocida infection, then the injection was performed once every 6 hours, for three times in total. Control mice were given an equal amount of DMSO at the same four time points. Subsequently, the survival rate of mice within 7 days was recorded. At the same time, mice were euthanized at 12 h, 16 h, 24 h and 32 h after infection to collect tissue and serum samples for later ELISA and bacterial count analysis.
# In order to measure the colonization of mouse lung bacteria before and after melatonin treatment, the lung tissues of mice were collected 24 hours and 32 hours after infection. The tissues were homogenized under aseptic conditions, and the bacterial content was determined by continuous dilution of 10 times in saline. These different dilutions were coated on the Martin broth agar in triplicate and incubated in a constant-temperature incubator at 37° C. for 24 hours to count the bacterial CFU.
# Pasteurella multocida [2] = test: Non-targeted metabonomic analysis; type: cell-based; conditions: 1 mg/mL of MT, 12 hours
# Procedure: 1 mL of fresh Pasteurella multocida (P. multocida) at the logarithmic growth stage was added into 100 mL of fresh Martin liquid medium containing 1 mg/mL of MT, and MT-free DMSO was used as a solvent control group. All cultures were incubated with shaking at 37° C. and 220 rpm for 12 hours. The bacterial samples were centrifuged at a speed of 3000 rpm/min at 4° C. for 10 minutes, the supernatant was removed, and the bacterial cells were collected and washed with PBS for 3 times. The bacterial cells were rapidly frozen in liquid nitrogen, transferred to dry ice, and sent to Shanghai Baiqu Biomedical Technology Co., Ltd. for metabolomic analysis (Q Exactive Orbitrap, Thermo Fisher Scientific, USA). Through the non-targeted metabonomic study of Pasteurella multocida cells before and after melatonin treatment, it was clarified which metabolic pathway of the bacteria is affected by melatonin in exerting the antibacterial activity of melatonin.
# Pasteurella multocida [3] = test: LIVE/DEAD BacLight integrity of bacterial cell membrane; type: cell-based; conditions: melatonin greater than the MIC concentration; 8, 12, 16 hours; time- and dose-dependent; FIG. 9
# Procedure: The integrity of bacterial cell membrane was evaluated with a LIVE/DEAD BacLight bacterial detection kit. 1 mL of bacterial culture was centrifuged at 3000 rpm for 10 minutes, the supernatant was removed, and the cells were washed with 10 mL of 0.85% NaCl for 3 times. The precipitated cells were resuspended and mixed with 1 mL of 0.85% NaCl. Then a mixture of SYTO9 fluorescent nucleic acid dye and propidium iodide mixed at the equal volume (3 μL each) was added into the resuspended solution. The mixture was thoroughly mixed and incubated in the dark at room temperature for 15 minutes. 5 μL of suspension of stained bacteria was added between a slide glass and a 18 mm square cover glass. (The combination of two nucleic acid dyes in this kit can distinguish living bacteria with intact membranes from dead bacteria with damaged membranes.) The living bacteria were dyed green with SYTO9, while the dead bacteria presented as red because of the interaction between propidium iodide and the double-stranded DNA of the bacteria. The fluorescence micrographs of stained bacteria were taken by OLYMPUS IX51 inverted microscope. Each experiment was carried out in triplicate for three times.
# Acinetobacter baumannii = test: MIC/MBC bacteriostatic and bactericidal test; type: cell-based
# Procedure: (§1) 1 mL of a fresh suspension of bacteria (1×10^9 CFU) at the logarithmic growth stage was added into 100 mL containing different concentrations (50 mg/mL, 25 mg/mL, 12.5 mg/mL, 6.25 mg/mL, 3.125 mg/mL, 1.5625 mg/mL, 0.78125 mg/mL, 0.390625 mg/mL) of melatonin. A melatonin (MT)-free solution diluted with DMSO was used as a control group. The samples were shaken at 37° C. and a rotation speed of 120 r/min with protection from light for 12 hours, and then subjected to detection of the minimal inhibitory concentration (MIC) of MT on bacteria. Then, 0.1 mL of the aforementioned transparent bacterial solution was pipetted onto a sterilized agar plate of a specific culture medium and coated evenly, incubated in an incubator at 37° C. for 24 hours, and then subjected to detection of the minimum bactericidal concentration (MBC) of MT on pathogens, wherein the minimum concentration of MT at which no bacterium grew was the MBC of MT on pathogens. Each experiment was carried out for 3 times, and each group was set in triplicate.
# Pseudomonas aeruginosa = test: MIC/MBC bacteriostatic and bactericidal test; type: cell-based
# Procedure: as §1
# [4] = tested on: Listeria monocytogenes (ATCC53005); test: MIC/MBC bacteriostatic and bactericidal test; type: cell-based
# Procedure: as §1
# [5] = tested on: Escherichia coli C83902 (ATCC72864); test: MIC/MBC bacteriostatic and bactericidal test; type: cell-based
# Procedure: as §1
# [6] = tested on: Avianpathogenic Escherichia coli; test: MIC/MBC bacteriostatic and bactericidal test; type: cell-based; conditions: 12 h
# Procedure: as §1
# [7] = tested on: Staphylococcus aureus (ATCC25923); test: MIC/MBC bacteriostatic and bactericidal test; type: cell-based
# Procedure: as §1
# Enterobacter sakazakii = test: MIC/MBC bacteriostatic and bactericidal test; type: cell-based; conditions: Cronobacter sakazakii
# Procedure: as §1
# Pasteurella multocida [8] = test: MIC/MBC bacteriostatic and bactericidal test; type: cell-based
# Procedure: as §1
# Streptococcus pneumoniae = test: MIC/MBC bacteriostatic and bactericidal test; type: cell-based
# Procedure: as §1
# Bacillus cereus = test: MIC/MBC bacteriostatic and bactericidal test; type: cell-based
# Procedure: as §1
# Pneumococcus = test: MIC/MBC bacteriostatic and bactericidal test; type: cell-based
# Procedure: as §1
# [9] = tested on: Bovine meningitic Escherichia coli; test: MIC/MBC bacteriostatic and bactericidal test; type: cell-based
# Procedure: as §1
compound,measurement,setting,value
"COc1ccc2[nH]cc(CCNC(C)=O)c2c1 [melatonin, N-acetyl-5-methoxytryptamine]",survival rate,Pasteurella multocida [1]; FIG. 35,improving the survival rate
same,bacterial colonization in mouse lungs,Pasteurella multocida [1]; FIG. 36,reducing bacterial colonization
same,acetyl coenzyme A level in bacterial cells,Pasteurella multocida [2],significantly up-regulated
same,citric acid level in bacterial cells,Pasteurella multocida [2],significantly down-regulated
same,pyruvic acid level in bacterial cells,Pasteurella multocida [2],significantly up-regulated
same,damage to bacterial cell membrane (SYTO9 / propidium iodide fluorescence),Pasteurella multocida [3],the red fluorescence increased and the green fluorescence decreased; also recorded: damages the cell membrane
same,MIC,"Acinetobacter baumannii; 37° C., 12 hours",12.5 mg/mL
same,MBC,"Acinetobacter baumannii; agar plate 37° C., 24 hours",12.5 mg/mL
same,MIC,"Pseudomonas aeruginosa; 37° C., 12 hours",12.5 mg/mL
same,MBC,"Pseudomonas aeruginosa; agar plate 37° C., 24 hours",12.5 mg/mL
same,MIC,"[4]; 37° C., 12 hours",12.5 mg/mL
same,MBC,"[4]; agar plate 37° C., 24 hours",50 mg/mL
same,MIC,"[5]; 37° C., 12 hours",12.5 mg/mL
same,MBC,"[5]; agar plate 37° C., 24 hours",25 mg/mL
same,MIC,[6],6.25 mg/mL
same,MIC,"[7]; 37° C., 12 hours",50 mg/mL
same,MBC,"[7]; agar plate 37° C., 24 hours",50 mg/mL
same,MIC,"Enterobacter sakazakii; 37° C., 12 hours",6.25 mg/mL
same,MBC,"Enterobacter sakazakii; agar plate 37° C., 24 hours",25 mg/mL
same,MIC,"Pasteurella multocida [8]; 37° C., 12 hours",1.56 mg/mL
same,MBC,"Pasteurella multocida [8]; agar plate 37° C., 24 hours, no bacterium grew",3.12 mg/mL
same,MIC,"Streptococcus pneumoniae; 37° C., 12 hours",12.5 mg/mL
same,MBC,"Streptococcus pneumoniae; agar plate 37° C., 24 hours",25 mg/mL
same,MIC,"Bacillus cereus; 37° C., 12 hours",6.25 mg/mL
same,MBC,"Bacillus cereus; agar plate 37° C., 24 hours",12.5 mg/mL
same,MIC,"Pneumococcus; 37° C., 12 hours",12.5 mg/mL
same,MBC,"Pneumococcus; agar plate 37° C., 24 hours",25 mg/mL
same,MIC,"[9]; 37° C., 12 hours",12.5 mg/mL
same,MBC,"[9]; agar plate 37° C., 24 hours",12.5 mg/mL

# From patent publication US20210353595A1, “USE OF MELATONIN IN PREPARATION OF MEDICAMENT FOR INHIBITING AND/OR KILLING BACTERIUM” (priority 2020, published 2021)
